How the values were obtained:
Sphaerotheca fuliginea = Sphaerotheca fuliginea control effect test (Test Example 6, large-volume foliar spray on cucumber); type: in vivo; conditions: 200 ppm, flowable (Formulation Example 6), sprayed on cucumber (SAGAMI HANJIRO) before inoculation, 12 days at 23° C.
Method: Test Examples 1 to 6 are tests using a large amount (about 2000 L/ha) of spray on plants, and the extent of spraying is so that the whole surface of a plant body is completely wet and the sprayed liquid drips.
(§1) In the following tests, compounds of the invention are represented by compound numbers described in Tables 1 to 8. The control effect of a compound of the invention was evaluated by visually observing the area of a lesion on a sample plant in investigation and comparing the area of a lesion in a non-treatment district and the area of a lesion in a districts treated with the compound of the invention.
Sand loam was compacted in a plastic pot, a cucumber (SAGAMI HANJIRO) was seeded and grown in a green house for 12 days. Then, the Compound 1 was formulated into flowable fomulation according the Formulation Example 6, then, diluted with water to provide given concentration (200 ppm), and this was sprayed onto stems and leaves so as to give sufficient adhesion on the surface of cucumber leaves. After spraying, the plant was air-dried, and Sphaerotheca fuliginea spores were inoculated. After inoculation, the plant was first left for 12 days at 23° C., then, the control effect was checked.

Erysiphe graminis = Erysiphe graminis control effect test (Test Example 7, small-volume spray 200 L/ha on wheat); type: in vivo; conditions: 1000 ppm, emulsifiable formulation (Formulation Example 7), spray amount corresponding to 200 L/ha, wheat (NORIN No. 73), inoculated one day after, 7 days at 23° C.
Description: (§2) Test Examples 7 and 8 are tests using a small amount (corresponding 200 L/ha) of spray on plants, in which fine small liquid drops of a spray are uniformly adhere to the surface of a plant body and the extent of spraying is insufficient to for complete wetting of the surface of a plant body.
(§3) Controlling on a wheat disease in a field is so conducted in some cases that the spray liquid amount is about 200 L/ha. In this case, the amount of the sprayed liquid is insufficient for wetting of the whole plant body, and the sprayed liquid is adheres on a plant as fine liquid drops. For exerting high control effect on the subject diseases even under such spray condition, suitable physicochemical properties such as permeation transfer property, volatility and the like are required in addition to a basic effect.
as §1
(§4) Sand loam was compacted in a plastic pot, a wheat (NORIN No. 73) was seeded and grown in a green house for 10 days. […]

Puccinia striiformis = Puccinia striiformis control test (Test Example 8, small-volume spray 200 L/ha on wheat); type: in vivo; conditions: 1000 ppm, emulsifiable formulation (Formulation Example 7), spray amount corresponding to 200 L/ha, wheat (NORIN No. 73), 1 day dark high humidity at 23° C. then 6 days under illumination
Description: as §2, §3, §1, §4

SMILES	melting point [°C]	lesion area on plants relative to the lesion area of a non-treatment district (Sphaerotheca fuliginea)	lesion in the treatment district (control effect) (Erysiphe graminis)	lesion in the treatment district (control effect) (Puccinia striiformis)
Cc1ccc(Br)cc1Cn1c(C(F)F)nn(C)c1=O	107.6			
Cc1ccc(-c2ccccc2)cc1Cn1c(C(F)F)nn(C)c1=O [Compound 1, 5-difluoromethyl-2-methyl-4-(2-methyl-5-phenylbenzyl)-2,4-dihydro-3H-1,2,4-triazol-3-one]	72.7	not more than 10%	no lesion was recognized at all	no lesion was recognized at all
